# In patent US10253002B2, “Compounds and methods of treating infections” (Neoculi Pty Ltd., priority 2013, dated 2019):
# Where “and” joins values, the source holds several entries; their conditions need not be identical. Equal entries are not always repeated.
# Tests used:
# Test in all cases: Broth microdilution MIC, Example 7 (NCL812 and analogues)
# Pseudomonas aeruginosa = assay type: cell-based; settings: P. aeruginosa; 24 hours; duplicate lines per compound
# VRE = assay type: cell-based, Enterococcus spp.; settings: 24 hours, duplicate lines per compound
# Outline: (§1)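 MICs in μg/ml were read as growth inhibition by eye, checked at 600 nm absorbance against drug-free wells, following CLSI broth microdilution. Strains: two MRSA, two VRE; duplicates, repeated once more when results diverged beyond one dilution step.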
# MRSA = assay type: cell-based, Staphylococcus aureus; settings: 24 hours, duplicate lines per compound
# Outline: as §1
# Escherichia coli = assay type: cell-based; settings: E. coli; 24 hours; duplicate lines per compound
Compound,"MIC (μg/ml) at 24 hours, P. aeruginosa (Pseudomonas aeruginosa) [µg/mL]","MIC (μg/ml) at 24 hours, VRE 1 (VRE) [µg/mL]","MIC (μg/ml) at 24 hours, VRE 2 (VRE)","MIC (μg/ml) at 24 hours, MRSA 1 (MRSA)","MIC (μg/ml) at 24 hours, MRSA 2 (MRSA) [µg/mL]","MIC (μg/ml) at 24 hours, E. coli (Escherichia coli) [µg/mL]"
Cl.N=C(NN=Cc1ccc(O)cc1)NN=Cc1ccc(O)cc1 [NCL 151],>128,128,64 µg/mL,64 µg/mL,64,>128
Cc1cccc(C=NNC(=N)NN=Cc2cccc(C)c2O)c1O.Cl [NCL 152],>128,>128,>128 µg/mL,>128 µg/mL,>128,>128
CCC(=NNC(=N)NN=C(CC)c1ccc(Cl)cc1)c1ccc(Cl)cc1.Cl [NCL 153],>128,8,8 µg/mL,32 µg/mL,16,>128
CCCCC(=NNC(=N)NN=C(CCCC)c1ccc(Cl)cc1)c1ccc(Cl)cc1.Cl [NCL 154],>128,>128,>128 µg/mL,>128 µg/mL,>128,>128
C/C(=N\NC(=N)N/N=C(\C)c1ccc(Br)cc1)c1ccc(Br)cc1.Cl [NCL 155],>128,16,8 µg/mL,8 µg/mL,8,>128

# More lines, now with the values ahead:
"MIC (μg/ml) at 24 hours, P. aeruginosa (Pseudomonas aeruginosa) [µg/mL]","MIC (μg/ml) at 24 hours, VRE 1 (VRE) [µg/mL]","MIC (μg/ml) at 24 hours, VRE 2 (VRE)","MIC (μg/ml) at 24 hours, MRSA 1 (MRSA)","MIC (μg/ml) at 24 hours, MRSA 2 (MRSA) [µg/mL]","MIC (μg/ml) at 24 hours, E. coli (Escherichia coli) [µg/mL]",Compound
>128,>128,>128 µg/mL,>128 µg/mL,>128,>128,CCCC(=NNC(=N)NN=C(CCC)c1ccc(Cl)cc1)c1ccc(Cl)cc1.Cl [NCL 156]
>128,2,2 µg/mL and 4 µg/mL,2 µg/mL,2,>128,Cl.N=C(NN=Cc1ccc(Cl)cc1N)NN=Cc1ccc(Cl)cc1N [NCL 157]
>128,4,4 µg/mL,4 µg/mL,4,>128,CCC(=NNC(=N)NN=C(CC)c1ccc(Cl)cc1O)c1ccc(Cl)cc1O.Cl [NCL 158]
>128,16,128 µg/mL,64 µg/mL,128,>128,Cl.N=C(NN=C(c1ccc(Cl)cc1O)C1CCCC1)NN=C(c1ccc(Cl)cc1O)C1CCCC1 [NCL 159]
>128,16,64 µg/mL,32 µg/mL and 64 µg/mL,128,>128,Cl.N=C(NN=Cc1ccc(OC(F)(F)F)cc1)NN=Cc1ccc(OC(F)(F)F)cc1 [NCL 160]
>128,128,128 µg/mL,64 µg/mL and 128 µg/mL,128,>128,CC(=NNC(=N)NN=C(C)c1ccc(N2CCNCC2)cc1)c1ccc(N2CCNCC2)cc1.Cl [NCL 161]
